Data set [1] has as its system T. gondii RH-YFP tachyzoites. The data set is described as follows: Synergy studies with RH strain YFP tachyzoites. The format is cell-based, Toxoplasma gondii. The protocol:
Synergy studies with RH strain YFP Tachyzoites. Atovaquone and pyrimethamine were used to test whether they are synergistic with JAG21. Serial dilutions of the combination of JAG21 and either atovaquone or pyrimethamine were used in an in vitro challenge assay as described above. The EC50 of each compound and the combination of two compounds were determined. The effect of the combination of drugs was calculated with the following formula: C=[A]c/[A]a+[B]c/[B]a. If C is lower than 1, the two compounds tested have synergistic effect; if C is greater than 1, the two compounds tested have antagonist effect and if C is 1 they are additive.

In the next data set the target is hERG (Homo sapiens, UniProt Q12809). The data set can be described thus: hERG liability. The data set is classed as in vitro ADME. The protocol:
(§1) Structure Activity Relationship (SAR) and comparison of effect on T.gondii and HFF enzyme activity. […] The MDCK-MDR1 Permeability Assay was also performed. […] These were measured by Chem Partners.
In general terms: Block of hERG is tested as a sign of cardiac risk.

Data set [2] in a line: Metabolic stability in human liver microsomes. The format is in vitro ADME. How it is done: PBS Sol/Toxicity pH7.4 refers to solubility of the compound in Phosphate Buffered Saline (PBS) at pH7.4. […] Parasites were RH-YFP expressing tachyzoites (Tachy) and EGS (Brady) strains. Studies of effects of inhibitors on HFF or on T.gondii tachyzoites were performed with triplicate wells in at least two biological replicate experiments. Studies of effects on bradyzoites were performed at least twice in at least two biological replicate experiments. Compounds with much less inhibition of mammalian than T. gondii cytochrome bc in the saffarine enzyme assay (indicated by **) provide potential to further develop compounds, if unanticipated toxicity occurs from JAG21.
as §1
(Microsomes from liver hold many membrane-bound enzymes, among them those of drug oxidation.)

Each structure is given as a SMILES string.

Sequence of hERG (Q12809 whole entry): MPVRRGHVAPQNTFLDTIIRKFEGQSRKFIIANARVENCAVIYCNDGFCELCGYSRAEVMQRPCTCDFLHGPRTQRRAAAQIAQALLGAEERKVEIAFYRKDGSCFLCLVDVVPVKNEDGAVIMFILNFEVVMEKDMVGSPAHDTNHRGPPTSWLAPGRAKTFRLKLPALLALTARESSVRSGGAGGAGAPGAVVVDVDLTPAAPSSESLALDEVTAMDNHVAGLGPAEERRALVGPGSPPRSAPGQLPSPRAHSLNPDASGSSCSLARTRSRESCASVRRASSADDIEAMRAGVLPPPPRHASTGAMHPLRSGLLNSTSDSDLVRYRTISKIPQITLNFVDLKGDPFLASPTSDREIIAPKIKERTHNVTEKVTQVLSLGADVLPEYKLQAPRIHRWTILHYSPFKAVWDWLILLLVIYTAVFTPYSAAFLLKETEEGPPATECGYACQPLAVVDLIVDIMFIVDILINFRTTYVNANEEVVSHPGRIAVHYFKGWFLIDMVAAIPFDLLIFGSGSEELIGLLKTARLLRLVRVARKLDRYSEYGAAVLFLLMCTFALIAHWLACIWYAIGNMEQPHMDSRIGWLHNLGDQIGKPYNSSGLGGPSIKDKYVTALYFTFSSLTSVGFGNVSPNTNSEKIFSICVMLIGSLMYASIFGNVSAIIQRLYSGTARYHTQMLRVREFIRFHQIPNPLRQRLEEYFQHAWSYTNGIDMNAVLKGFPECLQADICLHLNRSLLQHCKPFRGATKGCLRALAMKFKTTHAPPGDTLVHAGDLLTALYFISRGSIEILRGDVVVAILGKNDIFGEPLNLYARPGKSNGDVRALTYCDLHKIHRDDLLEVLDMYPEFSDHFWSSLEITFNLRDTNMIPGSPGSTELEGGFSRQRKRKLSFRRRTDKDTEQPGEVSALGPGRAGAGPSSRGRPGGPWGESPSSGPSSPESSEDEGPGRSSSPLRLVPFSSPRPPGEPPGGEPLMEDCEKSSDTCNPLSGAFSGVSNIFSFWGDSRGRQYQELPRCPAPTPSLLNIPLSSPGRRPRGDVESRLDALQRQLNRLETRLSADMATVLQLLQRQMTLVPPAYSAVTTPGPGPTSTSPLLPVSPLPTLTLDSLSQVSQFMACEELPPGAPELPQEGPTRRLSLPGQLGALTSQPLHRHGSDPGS

With `Cc1[nH]c2c(c(=O)c1-c1ccc(Oc3ccc(OC(F)(F)F)cc3)cc1)CCCC2` [JAG021, 2-methyl-3-(4-(4-(trifluoromethoxy)phenoxy)phenyl)-5,6,7,8-tetrahydroquinolin-4-one], in data set [1] (isobologram), the “Combination with atovaquone against RH strain tachyzoites” value is listed as “synergy”. For the same molecule, the “Combination with pyrimethamine against RH strain tachyzoites” value in data set [1] (no synergy) was “no antagonism”. For the same molecule, the hERG liability entry at hERG is reported as “no hERG liability”. The “Remaining in human liver microsomes” value in data set [2] (after 45 minutes) was above 99%. Also, the half-life in data set [2] (predicted half-life in human liver microsomes, unit in cell, read-out: T1/2 (H)) was above 168 h.
